In US20120015988A1, “Sulfone Compounds Which Modulate The CB2 Receptor” (BOEHRINGER INGELHEIM INTERNATIONAL GMBH, priority 2008, published 2012):

Biological target: T1, human CB2R (Homo sapiens, UniProt P34972)
T1 construct: host or cells: CHO cells
Assay: CB2R mediated modulation of cAMP synthesis
Type: cell-based
Conditions: CHO cells expressing human CB2R; concentration at which 50% of the forskolin-stimulated cAMP synthesis was inhibited; 100% defined by 1 uM CP55940; read-out: CB2 EC50
Experimental: B. CB2R Mediated Modulation of Camp Synthesis:
Compounds of the invention were evaluated for their CB2 agonist or inverse agonistic activity in accordance with the following experimental method.
CHO cells expressing human CB2R (Euroscreen) were plated at a density of 5000 cells per well in 384 well plates and incubated overnight at 37° C. After removing the media, the cells were treated with test compounds diluted in stimulation buffer containing 1 mM IBMX, 0.25% BSA and 10 uM Forskolin. The assay was incubated for 30 minutes at 37° C. Cells were lysed and the cAMP concentration was measured using DiscoverX-XS cAMP kit, following the manufacturer's protocol. In this setting, agonists will decrease forskolin induced production of cAMP while inverse agonists will further increase forskolin induced production of cAMP. EC50 of agonists were calculated as follows. The maximal amount of cAMP produced by forskolin compared to the level of cAMP inhibited by 1 uM CP55940 is defined as 100%. The EC50 value of each test compound was determined as the concentration at which 50% of the forskolin-stimulated cAMP synthesis was inhibited. Data was analyzed using a four-parameter logistic model. (Model 205 of XLfit 4.0).

T1 sequence (P34972 whole entry): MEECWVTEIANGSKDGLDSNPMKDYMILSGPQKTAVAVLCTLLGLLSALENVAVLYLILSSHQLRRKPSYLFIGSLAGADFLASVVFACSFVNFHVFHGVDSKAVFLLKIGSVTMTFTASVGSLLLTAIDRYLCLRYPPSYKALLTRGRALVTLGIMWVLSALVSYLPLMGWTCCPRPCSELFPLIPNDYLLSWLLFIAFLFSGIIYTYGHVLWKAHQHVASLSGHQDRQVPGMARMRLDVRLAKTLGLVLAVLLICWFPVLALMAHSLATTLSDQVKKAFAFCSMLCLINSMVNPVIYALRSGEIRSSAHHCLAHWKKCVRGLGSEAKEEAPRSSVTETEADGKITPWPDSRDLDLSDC

Compound	EC50 [nM]
Cn1nc(C(C)(C)C)cc1-c1nnc(C(C)(C)S(=O)(=O)c2ccc(F)cc2)[nH]1 [Example 44, 3-(5-tert-butyl-2-methyl-2H-pyrazol-3-yl)-5-[1-(4-fluoro-benzenesulfonyl)-1-methyl-ethyl]-4H-[1,2,4]triazole]	2
CC(C)(C)c1cc(-c2nnc(C(C)(C)S(=O)(=O)c3ccc(F)cc3)[nH]2)on1 [Example 45, 3-(3-tert-butyl-isoxazol-5-yl)-5-[1-(4-fluoro-benzenesulfonyl)-1-methyl-ethyl]-4H-[1,2,4]triazole]	255
Cn1nc(C(C)(C)C)cc1-c1nnc(C(C)(C)S(=O)(=O)CC2CCOCC2)[nH]1 [Example 46, 3-(5-tert-butyl-2-methyl-2H-pyrazol-3-yl)-5-[1-methyl-1-(tetrahydro-pyran-4-ylmethanesulfonyl)-ethyl]-4H-[1,2,4]triazole]	414
Cn1nc(C(C)(C)C)cc1-c1nnc(C(C)(C)S(=O)(=O)Cc2ccc(F)cc2)[nH]1 [Example 48, 3-(5-tert-butyl-2-methyl-2H-pyrazol-3-yl)-5-[1-(4-fluoro-phenylmethanesulfonyl)-1-methyl-ethyl]-4H-[1,2,4]triazole]	129
CC(C)(C)c1cc(-c2nnc(C(C)(C)S(=O)(=O)Cc3ccc(F)cc3)[nH]2)on1 [Example 49, 3-(3-tert-Butyl-isoxazol-5-yl)-5-[1-(4-fluoro-phenylmethanesulfonyl)-1-methyl-ethyl]-4H-[1,2,4]triazole]	293
Cn1nc(C(C)(C)C)cc1-c1nnc(C(C)(C)S(=O)(=O)CC2CCC(O)CC2)[nH]1 (stereo not drawn) [Example 51, 4-{2-[5-(5-tert-butyl-2-methyl-2H-pyrazol-3-yl)-4H-[1,2,4]triazol-3-yl]-propane-2-sulfonylmethyl}-cyclohexanol]	459
